Assay results from PubChem BioAssay AID1919010 (Molecular Pharmacology Branch, DTP, NCI, 2023).
“And” between values parts separate entries of the source, which are not always exact repeats. Equal values may be shown once.

Tested on: Hs578T complex spheroid growth, percent test/control
Test: Anticancer human tumor Hs578T cell line growth inhibition [AhR];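 note: luminescent viability signal as a proxy for spheroid growth; spheroids exposed to agents for one week after three days of growth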
Conditions: for viability, T/C: stronger effect = lower value; active = viability on the fitted dose curve at most 10% of control; inactive = the rest
Summary of the method: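 Complex tumor spheroids co-cultured with HUVEC and human MSC stroma; AhR antagonists tested in combination with standard-of-care and investigational agents. Top concentration at or near clinical Cmax (else 10 microM), half-log dilutions; growth expressed as percent test/control.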

[1] = curve of first compound, second compound 0.1 µM
[2] = curve of first compound, second compound 0.316 µM
[3] = curve of first compound, second compound 1 µM
[4] = curve of first compound, second compound 3.16 µM
[5] = curve of first compound, second compound 10 µM
[6] = second compound 0.1 µM, first compound 0.0316 µM
[7] = second compound 0.1 µM, first compound 0.1 µM
[8] = second compound 0.1 µM, first compound 0.316 µM
[9] = second compound 0.1 µM, first compound 1 µM
[10] = second compound 0.1 µM, first compound 3.16 µM
[11] = second compound 0.1 µM, first compound 10 µM
[12] = second compound 0.316 µM, first compound 0.0316 µM
[13] = second compound 0.316 µM, first compound 0.1 µM
[14] = second compound 0.316 µM, first compound 0.316 µM
[15] = second compound 0.316 µM, first compound 1 µM
[16] = second compound 0.316 µM, first compound 3.16 µM
[17] = second compound 0.316 µM, first compound 10 µM
[18] = second compound 1 µM, first compound 0.0316 µM
[19] = second compound 1 µM, first compound 0.1 µM
[20] = second compound 1 µM, first compound 0.316 µM
[21] = second compound 1 µM, first compound 1 µM
[22] = second compound 1 µM, first compound 3.16 µM
[23] = second compound 1 µM, first compound 10 µM
[24] = second compound 3.16 µM, first compound 0.0316 µM
[25] = second compound 3.16 µM, first compound 0.1 µM
[26] = second compound 3.16 µM, first compound 0.316 µM
[27] = second compound 3.16 µM, first compound 1 µM
[28] = second compound 3.16 µM, first compound 3.16 µM
[29] = second compound 3.16 µM, first compound 10 µM
[30] = second compound 10 µM, first compound 0.0316 µM
[31] = second compound 10 µM, first compound 0.1 µM
[32] = second compound 10 µM, first compound 0.316 µM
[33] = second compound 10 µM, first compound 1 µM
[34] = second compound 10 µM, first compound 3.16 µM
[35] = second compound 10 µM, first compound 10 µM

COc1cc(Nc2ncc3c(n2)-c2ccc(Cl)cc2C(c2c(F)cccc2OC)=NC3)ccc1C(=O)O + Cc1cncc(-c2nc(NCCc3c[nH]c4ccccc34)c3ncn(C(C)C)c3n2)c1
< 0.0316 µM: IC50 [5]
inactive: viability, T/C [6] 91.4% | viability, T/C [7] 94.7% | viability, T/C [8] 99.6% | viability, T/C [9] 101% | viability, T/C [10] 85.6% | viability, T/C [11] 65.1% | viability, T/C [12] 93.5% | viability, T/C [13] 93.2% | viability, T/C [14] 107% | viability, T/C [15] 90.5% | viability, T/C [16] 88.2% | viability, T/C [17] 66.9% | viability, T/C [18] 98.5% | viability, T/C [19] 81.7% | viability, T/C [20] 104% | viability, T/C [21] 99.2% | viability, T/C [22] 86.7% | viability, T/C [23] 62.5% | viability, T/C [24] 55.6% | viability, T/C [25] 62.4% | viability, T/C [26] 70.1% | viability, T/C [27] 59.4% | viability, T/C [28] 61.1% | viability, T/C [29] 53.3%
> 10 µM: IC50 [1] | IC50 [2] | IC50 [3] | IC50 [4]
active: viability, T/C [30] 6.12% | viability, T/C [31] 5.86% | viability, T/C [32] 6.53% | viability, T/C [33] 6.24% | viability, T/C [34] 8.49% | viability, T/C [35] 12.8%

CC1COCCN1c1cc(C2(S(C)(=N)=O)CC2)nc(-c2ccnc3[nH]ccc23)n1 (configuration not stated) + Cc1ccccc1N=Nc1ccc(NC(=O)c2ccnn2C)c(C)c1
9.24 µM: IC50 [3]
inactive: viability, T/C [6] 110% | viability, T/C [7] 102% | viability, T/C [8] 102% | viability, T/C [9] 96.6% | viability, T/C [10] 77.9% | viability, T/C [11] 47.9% | viability, T/C [12] 101% | viability, T/C [13] 101% | viability, T/C [14] 100% | viability, T/C [15] 93.4% | viability, T/C [16] 76.9% | viability, T/C [17] 52.4% | viability, T/C [18] 94.6% | viability, T/C [19] 102% | viability, T/C [20] 99.5% | viability, T/C [21] 86.3% | viability, T/C [22] 73.7% | viability, T/C [23] 48.1% | viability, T/C [24] 85.4% | viability, T/C [25] 93.3% | viability, T/C [26] 89.7% | viability, T/C [27] 84.4% | viability, T/C [28] 69.2% | viability, T/C [29] 51.4% | viability, T/C [30] 62.9% | viability, T/C [31] 62% | viability, T/C [32] 76.1% | viability, T/C [33] 68.5% | viability, T/C [34] 61.6% | viability, T/C [35] 47.7%
> 10 µM: IC50 [2] | IC50 [4] | IC50 [5]
9.25 µM: IC50 [1]

CC(C)CC(NC(=O)C(Cc1ccccc1)NC(=O)c1cnccn1)B(O)O (configuration not stated) + Cc1cncc(-c2nc(NCCc3c[nH]c4ccccc34)c3ncn(C(C)C)c3n2)c1
active: viability, T/C (second compound 0.1 µM, first compound 0.03 µM) 0.32% | viability, T/C (second compound 0.1 µM, first compound 0.0949 µM) 0.25% | viability, T/C (second compound 0.1 µM, first compound 0.3 µM) 0.36% | viability, T/C (second compound 0.316 µM, first compound 0.03 µM) 0.39% | viability, T/C (second compound 0.316 µM, first compound 0.0949 µM) 0.31% | viability, T/C (second compound 0.316 µM, first compound 0.3 µM) 0.31% | viability, T/C (second compound 1 µM, first compound 0.03 µM) 0.28% | viability, T/C (second compound 1 µM, first compound 0.0949 µM) 0.19% | viability, T/C (second compound 1 µM, first compound 0.3 µM) 0.29% | viability, T/C (second compound 3.16 µM, first compound 0.03 µM) 0.24% | viability, T/C (second compound 3.16 µM, first compound 0.0949 µM) 0.24% | viability, T/C (second compound 3.16 µM, first compound 0.3 µM) 0.28% | viability, T/C (second compound 10 µM, first compound 0.000949 µM) 5.56% | viability, T/C (second compound 10 µM, first compound 0.003 µM) 6.44% | viability, T/C (second compound 10 µM, first compound 0.00949 µM) 1.16% | viability, T/C (second compound 10 µM, first compound 0.03 µM) 0.57% | viability, T/C (second compound 10 µM, first compound 0.0949 µM) 0.26% | viability, T/C (second compound 10 µM, first compound 0.3 µM) 0.36%
0.007 µM: IC50 [1]
0.00592 µM: IC50 [3]
< 0.000949 µM: IC50 [5]
0.00377 µM: IC50 [4]
inactive: viability, T/C (second compound 0.1 µM, first compound 0.000949 µM) 101% | viability, T/C (second compound 0.1 µM, first compound 0.003 µM) 101% | viability, T/C (second compound 0.1 µM, first compound 0.00949 µM) 31.8% | viability, T/C (second compound 0.316 µM, first compound 0.000949 µM) 112% | viability, T/C (second compound 0.316 µM, first compound 0.003 µM) 101% | viability, T/C (second compound 0.316 µM, first compound 0.00949 µM) 27.3% | viability, T/C (second compound 1 µM, first compound 0.000949 µM) 97.8% | viability, T/C (second compound 1 µM, first compound 0.003 µM) 86.5% | viability, T/C (second compound 1 µM, first compound 0.00949 µM) 24.8% | viability, T/C (second compound 3.16 µM, first compound 0.000949 µM) 69.4% | viability, T/C (second compound 3.16 µM, first compound 0.003 µM) 58% | viability, T/C (second compound 3.16 µM, first compound 0.00949 µM) 17.3%
0.00666 µM: IC50 [2]

Nc1ccn(C2OC(CO)C(O)C2(F)F)c(=O)n1 (configuration not stated) + Cc1cncc(-c2nc(NCCc3c[nH]c4ccccc34)c3ncn(C(C)C)c3n2)c1
< 0.0316 µM: IC50 [4] | IC50 [5]
active: viability, T/C [30] 4.28% | viability, T/C [31] 4.47% | viability, T/C [32] 3.43% | viability, T/C [33] 2.76% | viability, T/C [34] 3.29% | viability, T/C [35] 4.67%
inactive: viability, T/C [6] 59.4% | viability, T/C [7] 59.6% | viability, T/C [8] 62.6% | viability, T/C [9] 56.5% | viability, T/C [10] 57.5% | viability, T/C [11] 56.8% | viability, T/C [12] 67.2% | viability, T/C [13] 65.4% | viability, T/C [14] 63% | viability, T/C [15] 60.9% | viability, T/C [16] 59.4% | viability, T/C [17] 59.2% | viability, T/C [18] 61.6% | viability, T/C [19] 65.2% | viability, T/C [20] 56.3% | viability, T/C [21] 57.8% | viability, T/C [22] 56.8% | viability, T/C [23] 56.2% | viability, T/C [24] 37.8% | viability, T/C [25] 42.8% | viability, T/C [26] 41.1% | viability, T/C [27] 40.4% | viability, T/C [28] 33.3% | viability, T/C [29] 37.8%
> 10 µM: IC50 [1] | IC50 [2] | IC50 [3]

Nc1ccccc1NC(=O)c1ccc(CNC(=O)OCc2cccnc2)cc1
inactive: viability, T/C (compound 0.0316 µM) 110% and 93.1% and 105% | viability, T/C (compound 0.1 µM) 94.4% and 93.7% and 104% | viability, T/C (compound 0.316 µM) 90.6% and 82% and 81.3% | viability, T/C (compound 1 µM) 65.3% and 61.6% and 56.3% | viability, T/C (compound 3.16 µM) 29.8% and 16.3% and 22.4%
active: viability, T/C (compound 10 µM) 1.27% and 0.71% and 1.79%
1.64 µM and 1.3 µM and 1.19 µM: IC50 (curve of compound)

CC(C)c1c(-c2ccccc2)nc2c(C#N)c[nH]n2c1=O + CC(CO)NC(=O)c1cc(-c2ccc(Cl)cc2)nn(-c2cnn(C)c2)c1=O
inactive: viability, T/C [6] 109% | viability, T/C [7] 116% | viability, T/C [8] 121% | viability, T/C [9] 113% | viability, T/C [10] 119% | viability, T/C [11] 111% | viability, T/C [12] 113% | viability, T/C [13] 129% | viability, T/C [14] 123% | viability, T/C [15] 111% | viability, T/C [16] 113% | viability, T/C [17] 115% | viability, T/C [18] 109% | viability, T/C [19] 124% | viability, T/C [20] 119% | viability, T/C [21] 113% | viability, T/C [22] 113% | viability, T/C [23] 116% | viability, T/C [24] 115% | viability, T/C [25] 124% | viability, T/C [26] 131% | viability, T/C [27] 113% | viability, T/C [28] 120% | viability, T/C [29] 120% | viability, T/C [30] 110% | viability, T/C [31] 113% | viability, T/C [32] 107% | viability, T/C [33] 110% | viability, T/C [34] 113% | viability, T/C [35] 110%
> 10 µM: IC50 [1] | IC50 [2] | IC50 [3] | IC50 [4] | IC50 [5]
